Experimental data taken from PubChem BioAssay (NCI).
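Growth conditions: 96-well plates. Treatment: test compound, 48 hours, 5 concentrations. Analysis: linear interpolation between bracketing concentrations; unreached endpoints set to highest concentration. GI50: concentration for 50% inhibition of growth. TGI denotes the concentration required for complete inhibition of growth.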

Columns and labels:
Assay in all cases: DTP human tumour cell line panel, 48 h
NCI-H23 lung = tested on: NCI-H23 lung
NCI-H460 lung = tested on: NCI-H460 lung
NCI-H522 lung = tested on: NCI-H522 lung
NCI/ADR-RES ovarian = tested on: NCI/ADR-RES ovarian
OVCAR-3 ovarian = tested on: OVCAR-3 ovarian
OVCAR-4 ovarian = tested on: OVCAR-4 ovarian
OVCAR-5 ovarian = tested on: OVCAR-5 ovarian
OVCAR-8 ovarian = tested on: OVCAR-8 ovarian
PC-3 prostate = tested on: PC-3 prostate
RPMI-8226 leukemia = tested on: RPMI-8226 leukemia
SF-268 CNS = tested on: SF-268 CNS
SF-539 CNS = tested on: SF-539 CNS
SK-MEL-2 melanoma = tested on: SK-MEL-2 melanoma
SK-MEL-28 melanoma = tested on: SK-MEL-28 melanoma
SK-MEL-5 melanoma = tested on: SK-MEL-5 melanoma
SK-OV-3 ovarian = tested on: SK-OV-3 ovarian
SN12C renal = tested on: SN12C renal
SNB-19 CNS = tested on: SNB-19 CNS
SNB-75 CNS = tested on: SNB-75 CNS
SR leukemia = tested on: SR leukemia
SW-620 colon = tested on: SW-620 colon
T-47D breast = tested on: T-47D breast
TK-10 renal = tested on: TK-10 renal
U251 CNS = tested on: U251 CNS
UACC-257 melanoma = tested on: UACC-257 melanoma
UACC-62 melanoma = tested on: UACC-62 melanoma
UO-31 renal = tested on: UO-31 renal

With `CC(C)OC(=O)Nc1ccc(-c2nc(-c3cccc(OCCN4CCOCC4)c3)c(-c3ccnc(Br)c3)[nH]2)cc1` the TGI (NCI-H23 lung) was 4.72 µM, the GI50 (NCI-H460 lung) was 3.63 µM and the TGI (NCI-H460 lung) was > 100 µM. The GI50 (NCI-H522 lung) was 3.86 µM, the TGI (NCI-H522 lung) was > 100 µM and the GI50 (NCI/ADR-RES ovarian) was 4.3 µM. For the same compound, the TGI (NCI/ADR-RES ovarian) was > 100 µM, the GI50 (OVCAR-3 ovarian) was 4.91 µM and the TGI (OVCAR-3 ovarian) was > 100 µM. The GI50 (OVCAR-4 ovarian) was 4.79 µM, the TGI (OVCAR-4 ovarian) was > 100 µM and the GI50 (OVCAR-5 ovarian) was 4.97 µM. For the same compound, the TGI (OVCAR-5 ovarian) was > 100 µM, the GI50 (OVCAR-8 ovarian) was 4.32 µM and the TGI (OVCAR-8 ovarian) was > 100 µM. The GI50 (PC-3 prostate) was 2.96 µM, the TGI (PC-3 prostate) was > 100 µM and the GI50 (RPMI-8226 leukemia) was 0.549 µM. The TGI (RPMI-8226 leukemia) was 2.91 µM, the GI50 (SF-268 CNS) was 4.05 µM and the TGI (SF-268 CNS) was > 100 µM. For the same compound, the GI50 (SF-539 CNS) was 1.52 µM, the TGI (SF-539 CNS) was 5.46 µM and the GI50 (SK-MEL-2 melanoma) was 2.87 µM. The TGI (SK-MEL-2 melanoma) was 9.13 µM, the GI50 (SK-MEL-28 melanoma) was 1.67 µM and the TGI (SK-MEL-28 melanoma) was 4.16 µM. The GI50 (SK-MEL-5 melanoma) was 1.79 µM, the TGI (SK-MEL-5 melanoma) was 3.27 µM and the GI50 (SK-OV-3 ovarian) was 2.49 µM. For the same compound, the TGI (SK-OV-3 ovarian) was 5.8 µM, the GI50 (SN12C renal) was 4.29 µM and the TGI (SN12C renal) was > 100 µM. For the same compound, the GI50 (SNB-19 CNS) was 3.22 µM, the TGI (SNB-19 CNS) was > 100 µM and the GI50 (SNB-75 CNS) was 0.611 µM. The TGI (SNB-75 CNS) was 5.17 µM, the GI50 (SR leukemia) was 2.4 µM and the TGI (SR leukemia) was > 100 µM. For the same compound, the GI50 (SW-620 colon) was 3.12 µM, the TGI (SW-620 colon) was > 100 µM and the GI50 (T-47D breast) was 2.61 µM. For the same compound, the TGI (T-47D breast) was > 100 µM, the GI50 (TK-10 renal) was 6.15 µM and the TGI (TK-10 renal) was > 100 µM. The GI50 (U251 CNS) was 2.01 µM, the TGI (U251 CNS) was > 100 µM and the GI50 (UACC-257 melanoma) was 2.72 µM. It also gave a TGI (UACC-257 melanoma) of 8.82 µM, a GI50 (UACC-62 melanoma) of 2.31 µM and a TGI (UACC-62 melanoma) of 6.28 µM. For the same compound, the GI50 (UO-31 renal) was 2.84 µM and the TGI (UO-31 renal) was > 100 µM.
